These results are taken from paper PMC3985486 (Biochemistry, 2014).

Converted amounts (≈) assume the structure as drawn.

Experiment [1] has as its system E. faecalis strain ATCC 29212. The experiment can be described thus: Broth microdilution MIC, E. faecalis. It is filed as cell-based, Enterococcus faecalis. In general terms: Dilution methods test growth across graded concentrations, often in twofold steps.
Experiment [2] has as its system S. aureus strain ATCC 29213. The experiment can be described thus: Broth microdilution MIC, S. aureus. It is filed as cell-based, Staphylococcus aureus.
[3] abbreviates: Enterococcus faecalis, ATCC29212, pH 5.8, E. faecalis 29212, pH 5.8.
[4] abbreviates: Enterococcus faecalis, ATCC29212, pH 7, E. faecalis 29212, pH 7.
Setting [5] is: Staphylococcus aureus, ATCC29213.
[6] abbreviates: Staphylococcus aureus, ATCC29213, pH 5.8.
Setting [7] is: Staphylococcus aureus, ATCC29213, pH 7.

With `CCC[C@H]1c2ccccc2C=NN1C(=O)/C=C/c1cc(Cc2cnc(N)nc2N)cc(OC)c1OC` (racemic) [RAB, (S,E)-3-{5-[(2,4-diaminopyrimidin-5-yl)methyl]-2,3-dimethoxyphenyl}-1-[1-propylphthalazin-2(1H)-yl]-2-propen-1-one], the minimum inhibitory concentration (MIC) (in general, the lowest concentration that inhibits growth of the organism) is 0.125 to 0.25 µg/mL (≈ 0.257 to 0.514 µM) in experiment [1] (setting [3]); 0.06 µg/mL (≈ 0.123 µM) in experiment [1] (setting [4]); 0.06 µg/mL (≈ 0.123 µM) in experiment [2] (setting [5]); 0.25 µg/mL (≈ 0.514 µM) in experiment [2] (setting [6]); 0.03 to 0.06 µg/mL (≈ 0.0617 to 0.123 µM) in experiment [2] (setting [7]).

On to `COc1cc(Cc2cnc(N)nc2N)cc(OC)c1OC` [TMP, trimethoprim], for which the “increase in MIC in acidic environment” value in experiment [1] (E. faecalis, acidic pH vs pH 7) was 2–3 fold; in experiment [2] (S. aureus, acidic pH vs pH 7), 2–3 fold. Also, the “shift (increase) in MIC with exogenous folinic acid” value in experiment [1] (E. faecalis, folinic acid in media vs none) was “up to 1 fold”. In addition, the MIC is 1 µg/mL (≈ 3.44 µM) in experiment [1] (setting [3]); 0.125 to 0.25 µg/mL (≈ 0.431 to 0.861 µM) in experiment [1] (setting [4]); 2 to 4 µg/mL (≈ 6.89 to 13.8 µM) in experiment [2] (setting [5]); 8 µg/mL (≈ 27.6 µM) in experiment [2] (setting [6]); 2 µg/mL (≈ 6.89 µM) in experiment [2] (setting [7]).

On to `CN[C@H](CC(C)C)C(=O)N[C@H]1C(=O)N[C@@H](CC(N)=O)C(=O)N[C@H]2C(=O)N[C@H]3C(=O)N[C@H](C(=O)N[C@H](C(=O)O)c4cc(O)cc(O)c4-c4cc3ccc4O)[C@H](O)c3ccc(c(Cl)c3)Oc3cc2cc(c3O[C@@H]2O[C@H](CO)[C@@H](O)[C@H](O)[C@H]2O[C@H]2C[C@](C)(N)[C@H](O)[C@H](C)O2)Oc2ccc(cc2Cl)[C@H]1O` [VAN], for which the MIC in experiment [1] (E. faecalis 29212, folinic acid 0.1 μg/mL added) was 2 to 4 µg/mL; in experiment [1] (E. faecalis 29212, pH 5.8) it was 1 to 2 µg/mL; in experiment [1] (E. faecalis 29212, pH 7), 1 to 2 µg/mL; in experiment [2] (S. aureus 29213, folinic acid 0.1 μg/mL added), 1 µg/mL (≈ 0.69 µM); in experiment [2] (S. aureus 29213, pH 5.8), 1 µg/mL (≈ 0.69 µM); in experiment [2] (S. aureus 29213, pH 7), 1 µg/mL (≈ 0.69 µM).
